Data taken from paper PMC10669052, “Exploring Differences in Pharmacometrics of Rabeprazole between Genders via Population Pharmacokinetic–Pharmacodynamic Modeling” (Biomedicines, 2023).
Values after ≈ are worked out from the molar mass of the structure shown. Where two headings read alike, the source gives them in different places.

Columns and labels:
clinical = details: for AUC / AUC(0-inf) / AUCextrap / Cmax / MRT / Tmax / Vd/F / half-life: human, in vivo, po
Procedure: Analysis of biochemical parameters was performed on all subjects participating in the clinical trial and the methods are presented in Supplementary Information S1. Information relating to the selection and progress of clinical trial participants is presented in Supplementary Information S2, and information on the clinical trial design and sampling is presented in Supplementary Information S3. The clinical trial protocol was thoroughly reviewed and officially approved (approval number: MB22-002; approved on 15 February 2022) by the Ministry of Food and Drug Safety (Cheongju-si, Republic of Korea). NCA was used to calculate the rabeprazole pharmacokinetic parameters for males and females before a comparison of rabeprazole pharmacokinetics was performed between genders to determine any significant rabeprazole pharmacokinetic parameters in males and females. Pharmacokinetic parameters calculated by NCA were estimated based on plasma concentration values over time after orally administering a 10 mg rabeprazole enteric-coated tablet. Information on the analytical method applied to quantify rabeprazole among plasma samples is briefly presented in Supplementary Information S4, whereas the methods for calculating pharmacokinetic parameters using NCA are presented in Supplementary Information S5. An additional NCA analysis was performed based on the normalized rabeprazole plasma concentration values for body weight, which is one of the major physiological differences between genders that has been frequently applied in past pharmacokinetic comparative studies between genders, and the results were categorized and compared by gender. The significant differences between genders were compared using a two-tailed t test, with significance determined at a p value of 0.05.
43 Supplementary Information 3
45 Clinical trial design and sampling
46 This bioequivalence investigation was performed as randomized, single-dose, open-label,
47 crossover, and two-way studies (with a washout period of 7 days). Prior to the clinical trial,
49 Minneapolis, MN, USA) installed into a vein on the arm or back of the hand, and 6 mL of blank
50 blood was collected. Then, all subjects were orally administered a single 10 mg rabeprazole
51 enteric-coated tablet along with 150 mL of water. Subjects had fasted for more than 10 h before
52 administration. Blood sampling from subjects was performed at a total of 13 specific time
53 points post-dose: Before administration (0 h) and at 1, 2, 2.5, 3, 3.5, 4, 4.5, 5, 5.5, 6, 7, 8, and
54 10 h after oral administration. The sampling method was as follows: To completely remove the
55 heparinized saline solution remaining in the venous catheter during blood collection,
56 approximately 1 mL of blood was collected and discarded each time, and approximately 6 mL
57 of blood was collected and placed in sodium heparinized vacutainer tubes (BD, Franklin Lakes,
58 NJ, USA) with the subject management number and blood collection time written on them.
59 After each blood draw, a saline solution for injection (containing heparin for injection) was
60 administered to prevent the blood remaining in the intravenous catheter from clotting. The
61 collected blood was centrifuged at 3,000 ×g for 10 min in a centrifuge set at 4 °C, and then
62 approximately 1 mL of plasma was taken, transferred to an Eppendorf tube (Eppendorf, […]

gastric pH = assay: Pharmacodynamic model (sigmoid Emax with baseline) of gastric pH versus rabeprazole plasma concentration; format: in vivo, human; details: sigmoid Emax model with baseline fitted to digitized gastric pH vs plasma concentration data
Description: The pharmacodynamic model was established based on rabeprazole plasma concentration-measured drug efficacy information (quantified using Web-plot-digitizer (version 4.6)), according to the rabeprazole exposure. The efficacy of rabeprazole was indicated by changes in gastric pH, which was related to plasma rabeprazole selectively inhibiting H^+/K^+-ATPase in gastric parietal cells, thereby increasing intragastric pH. Pharmacodynamic predictions for rabeprazole were achieved by structuring the effect compartment related to the rabeprazole pharmacokinetic profile in the central compartment. Simply, the change in the plasma pharmacokinetic profile over time after administering rabeprazole is directly related to the change in drug efficacy. Therefore, it could be expanded and implemented as a pharmacodynamic model, whereby the time–drug effect after exposure to rabeprazole can be quantified. The established and validated population pharmacokinetic model structure and parameter values associated with rabeprazole were fixed as representative values of the population before being expanded into a model to predict the pharmacodynamics of rabeprazole. This was conducted to explore the effect of any differences in the absorption rate of rabeprazole between genders.

[1] = Population pharmacokinetic model (three sequential absorption with Tlag, two-compartment; Phoenix NLME); format: in vivo, human; details: for CL/F: both sexes, human, plasma, oral, 10 mg, read-out: tvCLc/F (typical value, central compartment clearance) (converted)
Procedure: Construction and analysis of the population pharmacokinetic model for rabeprazole were performed using a non-linear mixed effects model approach using Phoenix NLME (version 8.4, Pharsight, Certara Inc., Princeton, NJ, USA) software. An estimation of population pharmacokinetic parameters for rabeprazole was performed using the first-order conditional estimates method with extended least squares estimation (with ŋ–ε interaction). The development of the rabeprazole population pharmacokinetic model was largely performed in two steps. First, a basic structural model was established that could explain the plasma concentration of rabeprazole following its oral administration. This included a number of basic compartments, whether to reflect the lag time (Tlag) associated with rabeprazole oral absorption, the mechanistic structuring involved in the absorption process (including multiple absorption), or the selection of relevant error models to account for residual and IIV. Thus, in establishing the model, the values obtained using the NCA calculations were reflected as the initial parameter values, which accelerated the convergence of the final parameters and enabled its effective modeling. Second, a search was performed for model-applicable effective covariates relevant to the inter-individual rabeprazole pharmacokinetic variation modeling. This was achieved by applying stepwise candidate covariates to the IIVs of the pharmacokinetic parameters reflected in the model. Gender and individual physiological and biochemical factors were considered potential effective covariates and treated as categorical and continuous data, respectively, before application priorities were determined based on the results of the previous correlation screening. Appropriate models for each step were selected and performed using various statistical significance tools derived from Phoenix NLME, including Akaike’s information criterion (AIC), twice the negative log-likelihood (−2LL), and goodness-of-fit (GOF) plots, whereas the significance of the total number of parameters applied to the model (increased or decreased degrees of freedom) was also considered. Significance was determined using a Chi-square distribution p value of 0.05 (for forward selection) and 0.01 (for backward elimination) at −2LL and objective function value (OFV). The adequacy of the rabeprazole population pharmacokinetic model was verified using GOF (including distribution of residuals), visual predictive check (VPC), and bootstrapping processes. Approaches to each tool for model verification are presented in Supplementary Information S6.
The structure of the rabeprazole population pharmacokinetic model can be explained as two compartments, each with three sequential first-order absorption and Tlag values. As for the basic compartments, significant model improvements (−2LL reduction of p < 0.05 and/or 0.01) were confirmed in two-compartment structures rather than in one, whereas the −2LL increased in three- or more compartment structures alongside the total number of parameters. As a result, the plasma rabeprazole concentration profiles could be explained by its distribution in the central and peripheral compartments with two kinetics in the body. Regarding the delayed absorption pattern of rabeprazole during the absorption phase, several structural absorption compartment models have been attempted, such as the Tlag reflection model, the non-sequential two absorption model (having two or more absorption points with consideration of bioavailability), and the sequential absorption model (via the application of two or more absorption rate constant parameters between successive absorption compartments). In addition, mathematical transformation models, such as Weibull absorption, saturation, zero-order, and mean transit time (MTT) have also been attempted. […]

[2] = final population PK model, Estimate
[3] = population PK model estimate as quoted in text

COCCCOc1ccnc(C[S+]([O-])c2nc3ccccc3[nH]2)c1C (centres unmarked) [rabeprazole, Rabeprazole]
AUC (clinical; both, 10 mg): 432 ± 166 ng·h/mL
AUC(0-inf) (clinical; both, 10 mg): 456 ± 174 ng·h/mL
AUCextrap (clinical; both, 10 mg): 5.07 ± 9.42%
Cmax (clinical; both, 10 mg): 236.57 ± 97.86 ng/mL
MRT (clinical; both, 10 mg): 4.79 ± 1.7 h
Tmax (clinical; both, 10 mg): 3.71 ± 1.22 h
Vd/F (clinical; both, 10 mg): 53.9 ± 27.3 L
half-life (clinical; both, 10 mg): 1.55 ± 0.54 h
Tmax (clinical; female): 4.1 ± 1.15 h
AUC (clinical; female, 10 mg): 424 ± 176 ng·h/mL
AUC(0-inf) (clinical; female, 10 mg): 453 ± 181 ng·h/mL
AUCextrap (clinical; female, 10 mg): 4.38 ± 7.82%
Cmax (clinical; female, 10 mg): 260 ± 113 ng/mL
MRT (clinical; female, 10 mg): 5.25 ± 1.97 h
Vd/F (clinical; female, 10 mg): 54.3 ± 38.1 L
half-life (clinical; female, 10 mg): 1.48 ± 0.64 h
AUC (clinical; male, 10 mg): 439 ± 161 ng·h/mL
AUC(0-inf) (clinical; male, 10 mg): 459 ± 172 ng·h/mL
AUCextrap (clinical; male, 10 mg): 3.84 ± 4.01%
Cmax (clinical; male, 10 mg): 216 ± 79.6 ng/mL
MRT (clinical; male, 10 mg): 4.4 ± 1.36 h
Tmax (clinical; male, 10 mg): 3.38 ± 1.21 h
Vd/F (clinical; male, 10 mg): 53.5 ± 12.8 L
half-life (clinical; male, 10 mg): 1.6 ± 0.44 h
AUCinf (plasma concentrations normalized by body weight) (clinical; single oral 10 mg enteric-coated tablet, NCA, body weight normalized, Total (n = 45), mean ± SD): 7.17 ± 3.34 ng·h/mL/kg
EC50 (gastric pH; Homo sapiens, read-out: EC50 (plasma rabeprazole concentration required to achieve 50% of the Emax)): 0.0516 µg/mL (≈ 0.143 µM)
E0 (basal pH effect in the stomach that occurs without rabeprazole) (gastric pH): 2.50
Emax (maximal effect of increasing gastric pH by plasma rabeprazole level) (gastric pH): 4.72
γ (sigmoidicity factor) (gastric pH): 5.04
dKa3dBSA (quantitative correlation value between Ka3 and body surface area) ([1]; Bootstrap (n = 1000) Median): −0.95
dTlagdGender (quantitative correlation value between Tlag and gender) ([1]; Bootstrap (n = 1000) Median): 0.67
tvCLp/F (typical value, peripheral compartment clearance) ([1]; Bootstrap (n = 1000) Median): 5.38 L/h
tvKa1 (first sequential absorption rate constant) ([1]; Bootstrap (n = 1000) Median): 1.89 h⁻¹
tvKa2 (second sequential absorption rate constant) ([1]; Bootstrap (n = 1000) Median): 2.03 h⁻¹
tvKa3 (third sequential absorption rate constant) ([1]; Bootstrap (n = 1000) Median): 3.26 h⁻¹
tvTlag (typical value, lag time) ([1]; Bootstrap (n = 1000) Median): 1.55 h
tvVc/F (typical value, central compartment distribution volume) ([1]; Bootstrap (n = 1000) Median): 10.06 L
tvVp/F (typical value, peripheral compartment distribution volume) ([1]; Bootstrap (n = 1000) Median): 11.30 L
ε (residual error) ([1]; Bootstrap (n = 1000) Median): 0.35
ω^2CLc/F (inter-individual variability) ([1]; Bootstrap (n = 1000) Median): 0.14
ω^2Ka1 (inter-individual variability) ([1]; Bootstrap (n = 1000) Median): 0.00
ω^2Ka2 (inter-individual variability) ([1]; Bootstrap (n = 1000) Median): 0.00
ω^2Ka3 (inter-individual variability) ([1]; Bootstrap (n = 1000) Median): 1.82
ω^2Tlag (inter-individual variability) ([1]; Bootstrap (n = 1000) Median): 0.23
ω^2Vc/F (inter-individual variability) ([1]; Bootstrap (n = 1000) Median): 1.55
CL/F ([1]; Bootstrap (n = 1000) Median): 424 mL/min
CL/F [1, 2]: 428 mL/min
dKa3dBSA (quantitative correlation value between Ka3 and body surface area) [1, 2]: −1.11
tvCLp/F (typical value, peripheral compartment clearance) [1, 2]: 5.45 L/h
tvKa1 (first sequential absorption rate constant, dosing depot–depot 1) [1, 2]: 1.91 h⁻¹
tvKa2 (second sequential absorption rate constant, depot 1–depot 2) [1, 2]: 2.43 h⁻¹
tvKa3 (third sequential absorption rate constant, depot 2–central compartment) [1, 2]: 3.34 h⁻¹
tvTlag (typical value, lag time) [1, 2]: 1.56 h
tvVc/F (typical value, central compartment distribution volume) [1, 2]: 10.31 L
tvVp/F (typical value, peripheral compartment distribution volume) [1, 2]: 11.46 L
ω^2CLc/F (inter-individual variability) [1, 2]: 0.14
ω^2Ka1 (inter-individual variability) [1, 2]: 0.00
ω^2Ka2 (inter-individual variability) [1, 2]: 0.00
ω^2Ka3 (inter-individual variability) [1, 2]: 1.74
ω^2Tlag (inter-individual variability) [1, 2]: 0.23
ω^2Vc/F (inter-individual variability) [1, 2]: 2.04
dTlagdGender (quantitative correlation value between Tlag and gender) ([1]; final population PK model, Estimate, female = 1, male = 0): 0.73
ε (residual error) ([1]; final population PK model, Estimate, log-additive error model): 0.37
Vc/F estimate [1, 3]: 10.3 L
Vp/F estimate [1, 3]: 11.5 L
